# Laboratory results: patent publication US11524012B1, “Quinolone analogs and their salts, compositions, and method for their use” (Senhwa Biosciences, Inc., priority 2018, dated 2022)
# Where two headings read alike, the source gives them in different places.
# Test: Pharmacokinetic study in patients with advanced hematologic cancers (IV infusion, LC/MS/MS)
# Assay type: in vivo, human
# Conditions: for AUC(0-t) / Cmax / Tmax / half-life: human, plasma
# Protocol: Pharmacokinetic studies and dose escalation studies were conducted in adult patients with advanced hematologic cancers at 25, mg/m^2 (ready-to-use formulation), 50 mg/m^2 (ready-to-use formulation), 100 mg/m^2 (ready-to-use formulation), 170 mg/m^2 (lyophilized formulation), and 250 mg/m^2 (lyophilized formulation) dose levels of Compound I. Each patient received one dose over 1 hour by IV infusion, once every three weeks±2 days (Cohort 1).
# Dose escalations were planned in 7 cohorts (25-450 mg/m2), in an accelerated design, with change to 3+3 design based on predefined toxicity criteria. 16 patients (6 myeloma, 2 Hodgkin lymphoma, 6 Non Hodgkin lymphoma (NHL), 1 TPLL, 1 CLL) were treated in 5 cohorts (25-250 mg/m2), for a median of 2 (1-18) cycles.
# 250 mg/m^2 dose of Compound I was prepared according to Example 2 (lyophilized composition with mannitol) and reconstituted with 5% glucose in sterile water for IV infusion.
# Levels of Compound I in patient's plasma were analyzed by liquid chromatography tandem mass spectrometry (LC/MS/MS) assay. Experimental procedures of the validated methods are summarized below.
# Calibration standards and QC samples were prepared by spiking the appropriate working solution and the internal standard spiking solution into blank human plasma (NaHep). Each sample was extracted with ACN and then centrifuged at 13700×g (12000 rpm) for 5 minutes. The extracted top layer was transferred to another disposable glass tube and evaporated to complete dryness in a water-bath at 40° C. under a stream of air or nitrogen. The dried sample was reconstituted with a solution of 50:50:0.1 (v/v) mixture of ACN:deionized water:formic acid. The reconstituted sample was transferred to a LC vial for LC/MS/MS analysis.
# The analytical method parameters are summarized below: • Isocratic elution using 7:3 (v/v) ACN: 75 mM Ammonium Formate (pH 2.5) as the mobile phase • Flow rate: 0.5 mL/min • Run time: Originally validated at 10 min; later validated at 6 min in this study • Column: Zorbax 300-SCX, 3×50 mm, […] • Injection volume: 5 μL • MS mode: ESI positive MRM mode
# [1] = 25 mg/m^2 (ready-to-use formulation), 1 hour IV infusion, first dose (first cycle), N 3
# [2] = 50 mg/m^2 (ready-to-use formulation), 1 hour IV infusion, first dose (first cycle), N 4
# [3] = 100 mg/m^2 (ready-to-use formulation), 1 hour IV infusion, first dose (first cycle), N 4
# [4] = 170 mg/m^2 (lyophilized formulation), 1 hour IV infusion, first dose (first cycle), N 3
# [5] = 250 mg/m^2 (lyophilized formulation), 1 hour IV infusion, first dose (first cycle), N 2
smiles,measurement,setting,value
"Cc1cnc(CNC(=O)c2c(=O)c3ccc(N4CCCN(C)CC4)nc3n3c2sc2ccccc23)cn1 [Compound I, 2-(4-Methyl-[1,4]diazepan-1-yl)-5-oxo-5H-7-thia-1,11b-diaza-benzo[c]fluorene-6-carboxylic acid (5-methyl-pyrazin-2-ylmethyl)-amide]",AUClast dose proportionality (in words),25-250 mg/m^2,not dose proportional
same,AUC(0-t),[1],2060 ng·h/mL
same,Cmax,[1],297 ng/mL
same,Tmax,"25 mg/m^2 (ready-to-use formulation), 1 hour IV infusion, first dose (first cycle), N 3, median",1 h
same,half-life,"25 mg/m^2 (ready-to-use formulation), 1 hour IV infusion, first dose (first cycle), N 3, read-out: T1/2 (converted)",23.2 h
same,AUC(0-t),[2],3650 ng·h/mL
same,Cmax,[2],384 ng/mL
same,Tmax,"50 mg/m^2 (ready-to-use formulation), 1 hour IV infusion, first dose (first cycle), N 4, median",0.75 h
same,half-life,"50 mg/m^2 (ready-to-use formulation), 1 hour IV infusion, first dose (first cycle), N 4, read-out: T1/2 (converted)",39.8 h
same,AUC(0-t),[3],10100 ng·h/mL
same,Cmax,[3],636 ng/mL
same,Tmax,"100 mg/m^2 (ready-to-use formulation), 1 hour IV infusion, first dose (first cycle), N 4, median",0.5 h
same,half-life,"100 mg/m^2 (ready-to-use formulation), 1 hour IV infusion, first dose (first cycle), N 4, read-out: T1/2 (converted)",58.4 h
same,AUC(0-t),[4],16800 ng·h/mL
same,Cmax,[4],1710 ng/mL
same,Tmax,"170 mg/m^2 (lyophilized formulation), 1 hour IV infusion, first dose (first cycle), N 3, median",0.52 h
same,half-life,"170 mg/m^2 (lyophilized formulation), 1 hour IV infusion, first dose (first cycle), N 3, read-out: T1/2 (converted)",45.5 h
same,AUC(0-t),[5],27100 ng·h/mL
same,Cmax,[5],1360 ng/mL
same,Tmax,"250 mg/m^2 (lyophilized formulation), 1 hour IV infusion, first dose (first cycle), N 2, median",1 h
same,half-life,"250 mg/m^2 (lyophilized formulation), 1 hour IV infusion, first dose (first cycle), N 2, read-out: T1/2 (converted)",83.3 h
same,half-life,"first dose, 25-250 mg/m^2 IV infusion over 1 hour, read-out: Mean elimination half-life",23.2 to 83.3 h
